SMILES strings stand for the structures. pEC50: −log10 of the molar value.

This note sets out measurements from ChEMBL document CHEMBL1137546, “The discovery of indole-derived long acting beta2-adrenoceptor agonists for the treatment of asthma and COPD” (Bioorg Med Chem Lett, 2007).

Data set [1] in a line: Lipophilicity, log D of the compound. It is filed as physicochemical. To be noted: octanol/water.
The next data set is filed under the species Homo sapiens. Briefly: Ratio of EC50 for human recombinant adrenergic beta-2 receptor to EC50 for human recombinant adrenergic beta-1 receptor.
Data set [2] addresses Beta-2 adrenergic receptor (Homo sapiens, UniProt P07550).
Description: Agonist activity at human recombinant adrenergic beta-2 receptor expressed in CHO cells assessed as elevation in cAMP levels
The nature of data set [3]: Half life in iv dosed rat. It is filed as ADME, organism-based. To be noted: in vivo.
Data set [4] is described as follows: Total clearance in iv dosed rat. The format is ADME, organism-based. To be noted: in vivo.
Data set [5] in a line: Metabolic stability in human liver microsomes. It is filed as ADME, Microsome.
Data set [6] in a line: Protein binding in rat plasma. It is filed as ADME, cell-free. To be noted: read-out: PPB (converted).
The nature of data set [7]: Apparent permeability from apical to basolateral side of human Caco-2 cell membrane. The format is ADME, cell-based. A general note: Caco-2 monolayers are a common model of the intestinal barrier.
Data set [8] can be described thus: Apparent permeability from basolateral to apical side of human Caco-2 cell membrane. It is filed as ADME, cell-based.
For the next data set, the system named is Rattus norvegicus. Briefly: Unbound clearance in iv dosed rat. The format is ADME, organism-based. To be noted: in vivo.
A short description of data set [9]: Volume of distribution in iv dosed rat. The format is ADME, organism-based. To be noted: in vivo.
Data set [10] in a line: Oral bioavailability po dosed rat. The format is ADME, organism-based. To be noted: in vivo.

Sequence of Beta-2 adrenergic receptor (P07550 whole entry): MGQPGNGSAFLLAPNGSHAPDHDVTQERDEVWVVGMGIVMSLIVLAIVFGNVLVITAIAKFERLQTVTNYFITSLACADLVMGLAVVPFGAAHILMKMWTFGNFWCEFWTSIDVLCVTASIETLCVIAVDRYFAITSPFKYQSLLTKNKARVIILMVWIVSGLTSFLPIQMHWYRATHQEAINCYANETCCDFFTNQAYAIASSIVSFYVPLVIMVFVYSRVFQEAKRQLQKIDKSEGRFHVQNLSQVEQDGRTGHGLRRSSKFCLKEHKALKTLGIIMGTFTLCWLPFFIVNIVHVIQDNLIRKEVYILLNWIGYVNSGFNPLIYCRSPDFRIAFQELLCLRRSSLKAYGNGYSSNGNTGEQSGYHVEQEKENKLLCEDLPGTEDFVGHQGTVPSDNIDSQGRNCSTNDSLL

For `COc1cccc(CCNC(=O)c2cc3cc(C[C@@H](C)NC[C@H](O)c4ccc(O)c(CO)c4)ccc3[nH]2)c1`, the log distribution coefficient (logD) (commonly the decadic logarithm of the distribution of all forms, ionised or not, between an organic phase and buffer at a given pH) in data set [1] came out at 2. Also, the Ratio EC50 in the data set listed under Homo sapiens was 35. Also, in data set [2], the negative logarithm of the EC50 (pEC50) (in general, the EC50 on a negative log10 scale, so that one unit is a factor of ten) is 9.60.

Consider `COc1cccc(OC)c1CNC(=O)c1cc2cc(C[C@@H](C)NC[C@H](O)c3ccc(O)c(CO)c3)ccc2[nH]1`, for which the half-life (as a rule, how long it takes for the measured level to halve) in data set [3] was 96 min; in [5] it was 4 min. In data set [1], this compound displayed a log distribution coefficient (logD) of 2.2. Moreover, the clearance (commonly a measure of how efficiently the substance is removed, as volume per time) in data set [4] was determined as 130 mL/min/kg. In addition, the Ratio EC50 in the data set listed under Homo sapiens came out at 4040. Besides, in data set [6], the fraction unbound is 0.1. Also, the apparent permeability from apical to basolateral (Papp A→B) (as a rule, how fast a substance crosses the layer from the apical side) in data set [7] is under 1 ×10⁻⁶ cm/s. Besides, the Papp B→A (in general, the apparent permeability from the basolateral to the apical side of a cell layer) in [8] amounted to 14 ×10⁻⁶ cm/s. Besides, the negative logarithm of the EC50 (pEC50) in data set [2] was 10.24. In the data set on Rattus norvegicus, this compound had a CL of 1200 mL/min/kg. In addition, in data set [9], the Vd (as a rule, the apparent volume that relates the amount in the body to the concentration in plasma or blood) stood at 18 L/kg. For the same compound, in data set [10], the bioavailability (usually dose-corrected exposure relative to a reference, in per cent) was under 5%.

Compound `C[C@H](Cc1ccc2[nH]c(C(=O)N[C@H](C)c3ccccc3)cc2c1)NC[C@H](O)c1ccc(O)c(CO)c1` showed a logD in data set [1] of 2.2. Besides, the Ratio EC50 in the data set filed under Homo sapiens is 585. Besides, the pEC50 in data set [2] was 10.24.

Turning to `COc1cccc(OC)c1CNC(=O)c1cc2cc(C[C@@H](C)NC[C@H](O)c3ccc(O)c(CO)c3)ccc2n1C`, in the data set filed under Homo sapiens, the Ratio EC50 was 1080. The same compound gave a pEC50 in data set [2] of 9.15.

Regarding `C[C@H](Cc1ccc2[nH]c(C(=O)NCC3CCC3)cc2c1)NC[C@H](O)c1ccc(O)c(CO)c1`, the logD in [1] is 1.9. Further, in the data set listed under Homo sapiens, the Ratio EC50 turned out to be 410. Moreover, the pEC50 in [2] is 10.29.

For the compound `CCn1c(C(=O)NCc2c(OC)cccc2OC)cc2cc(C[C@@H](C)NC[C@H](O)c3ccc(O)c(CO)c3)ccc21`, the Ratio EC50 in the data set listed under Homo sapiens is 254. The same compound had a pEC50 in [2] of 8.59.

Consider `CSc1ccccc1CNC(=O)c1cc2cc(C[C@@H](C)NC[C@H](O)c3ccc(O)c(CO)c3)ccc2[nH]1`, for which the Ratio EC50 in the data set listed under Homo sapiens was 332. The compound further had a negative-log EC50 (pEC50) in data set [2] of 10.42.

As for `C[C@H](Cc1ccc2[nH]c(C(=O)NCc3ccccc3)cc2c1)NC[C@H](O)c1ccc(O)c(CO)c1`, the Ratio EC50 in the data set listed under Homo sapiens came out at 480. For the same compound, in data set [2], the negative logarithm of the EC50 (pEC50) was 10.31.

As to `C[C@H](Cc1ccc2[nH]c(C(=O)NCc3ccccn3)cc2c1)NC[C@H](O)c1ccc(O)c(CO)c1`, in the data set listed under Homo sapiens, the Ratio EC50 is 1530. This compound also had a negative-log EC50 (pEC50) in [2] of 10.42.

In [1], `OCc1cc([C@@H](O)CNCCCCCCOCCCCc2ccccc2)ccc1O` [SALMETEROL] registered a logD of 2.1.

`C[C@H](Cc1ccc2[nH]c(C(=O)N(C)Cc3ccccc3)cc2c1)NC[C@H](O)c1ccc(O)c(CO)c1` displayed a log distribution coefficient (logD) in data set [1] of 2.1. Moreover, the Ratio EC50 in the data set filed under Homo sapiens worked out at 882. The compound also showed a pEC50 in data set [2] of 10.66.

Consider `C[C@H](Cc1ccc2[nH]c(C(=O)NCc3c(F)cccc3F)cc2c1)NC[C@H](O)c1ccc(O)c(CO)c1`, for which the Ratio EC50 in the data set listed under Homo sapiens worked out at 296. The compound further gave a negative-log EC50 (pEC50) in data set [2] of 10.28.

Turning to `CC[C@H](Cc1ccc2[nH]c(C(=O)NCc3c(OC)cccc3OC)cc2c1)NC[C@H](O)c1ccc(O)c(CO)c1`, the Ratio EC50 in the data set filed under Homo sapiens stood at 5740. This compound also showed a pEC50 in data set [2] of 9.59.

With `C[C@H](Cc1ccc2[nH]c(C(=O)NCc3ccc(O)cc3)cc2c1)NC[C@H](O)c1ccc(O)c(CO)c1`, the Ratio EC50 in the data set filed under Homo sapiens was determined as 75. This compound had a pEC50 in data set [2] of 9.79.

`C[C@H](Cc1ccc2[nH]c(C(=O)NCc3nccs3)cc2c1)NC[C@H](O)c1ccc(O)c(CO)c1` registered a log distribution coefficient (logD) in data set [1] of 0.8. Further, the Ratio EC50 in the data set filed under Homo sapiens was found to be 1340. This compound gave a pEC50 in data set [2] of 10.51.

On to `COc1ccccc1CNC(=O)c1cc2cc(C[C@@H](C)NC[C@H](O)c3ccc(O)c(CO)c3)ccc2[nH]1`, for which the logD in data set [1] stood at 2.2. The Ratio EC50 in the data set filed under Homo sapiens was 1240.

With `C[C@H](Cc1ccc2[nH]c(C(=O)NCc3ccc(S(N)(=O)=O)cc3)cc2c1)NC[C@H](O)c1ccc(O)c(CO)c1`, in the data set filed under Homo sapiens, the Ratio EC50 worked out at 42. The pEC50 in [2] is 9.91.

`COc1cccc(OC)c1CNC(=O)c1cc2cc(C[C@@H](C)NC[C@H](O)c3ccc(O)c(CO)c3)ccc2n1Cc1ccccc1`: the Ratio EC50 in the data set filed under Homo sapiens came out at 237. In data set [2], the negative-log EC50 (pEC50) was 9.16.
